Measurements taken from PubChem BioAssay AID743499 (The Scripps Research Institute Molecular Screening Center, 2014).
Activity calls are given as the source filed them. No rule for the calls is given here.

System: Crimean-Congo hemorrhagic fever virus L protein ovarian tumor domain protease (vOTU)
Assay: PubChem AID 743499
Details: purified CCHFV vOTU, di-Ub K63 fluorescence cleavage, active compounds read high

O=C(/C=C/c1ccc(O)cc1)c1ccc(NC2=C(N3CCCCC3)C(=O)c3ccccc3C2=O)cc1
inhibition (at 10.17 µM): 38.1%

O=C(NC1=C(NC2CCS(=O)(=O)C2)C(=O)c2ccccc2C1=O)c1ccccc1 (stereo unspecified)
inhibition (at 14.2 µM): 43.9%

O=c1[nH]c(Nc2ccccc2)cc2cc(Br)ccc12
inhibition (at 1.45 µM): 22%

CC1(C)C=C2C(=NN(c3ccccc3)C(N)=C2C#N)CO1
inhibition (at 23.49 µM): 76.2%

Cc1ccc2c(c1C)-c1c(ccc(C)c1C)C(=O)C2=O
inhibition (at 18.9 µM): 55.7%

O=C1Cc2ccccc2C(=O)N1Cc1ccccc1
inhibition (at 1.31 µM): 37.1%

CCc1cc[n+](C2=C(NS(=O)(=O)c3cccs3)C(=O)c3ccccc3C2=O)cc1
inhibition (at 14.16 µM): 50.9%

COc1ccc2noc3c2c1C(=O)c1ccccc1-3
inhibition (at 6.28 µM): 27.6%

CC1CCCC(NC(=O)COC(=O)c2ccc([N+](=O)[O-])s2)C1C (stereo unspecified)
inhibition (at 31.32 µM): 43.6%

COC1=C(N)C(=O)c2nc(C)ccc2C1=O
inhibition (at 4.98 µM): 53.1%

O=C1C=C(Nc2ccccc2)c2ccccc2C1=O
inhibition (at 15.55 µM): 89.1%

O=C1Cc2ccccc2C(=O)N1
inhibition (at 0.6 µM): 39.2%

Cc1ccccc1-c1cc2c(nn1)-c1ccccc1C2=O
inhibition (at 4.5 µM): 14.8% (inactive)

CC1COCC(C)N1C1=C(Cl)C(=O)c2ccccc2C1=O (stereo unspecified)
inhibition (at 14.67 µM): 24.6%

Nc1cc2c(cc1Br)[nH]c(=O)c1ccccc12
inhibition (at 4.57 µM): 4.29% (inactive)

COc1ccccc1NC(=O)COC(=O)c1ccc([N+](=O)[O-])s1
inhibition (at 35.07 µM): 84.1%

NC1=C(Cl)C(=O)c2ccc(S(N)(=O)=O)cc2C1=O
inhibition (at 0.39 µM): 50.5%

Cc1ccc(NC2=CC(=O)C(=O)c3ccccc32)cc1
inhibition (at 12.24 µM): 103%

O=C(COC(=O)c1ccc([N+](=O)[O-])s1)Nc1ncc(C(F)(F)F)cc1Cl
inhibition (at 27.79 µM): 68.2%

NS(=O)(=O)c1ccc(NC(=O)COC(=O)c2ccc([N+](=O)[O-])s2)cc1
inhibition (at 29.01 µM): 94.1%

O=C(OCc1nnc(-c2ccccc2)o1)c1ccc([N+](=O)[O-])s1
inhibition (at 26.04 µM): 99.5%

CN(C1=C(NC(=O)c2ccccc2)C(=O)c2ccccc2C1=O)C1CCS(=O)(=O)C1 (stereo unspecified)
inhibition (at 19.18 µM): 27.5%

CCn1nc(/C=C/c2ccccc2)nc2c(=O)n(C)c(=O)nc1-2
inhibition (at 0.49 µM): 96.1%

COc1cc(NC(=O)COC(=O)c2ccc([N+](=O)[O-])s2)cc(OC)c1OC
inhibition (at 21.72 µM): 82.2%

O=C(NC1=CC(=O)c2ccccc2C1=O)c1ccccc1
inhibition (at 12.37 µM): 33.4%

Cc1ccc(N2C(=O)[C@@H]3[C@H](C2=O)C2c4ccccc4C=CN2[C@@H]3C(=O)c2ccco2)cc1 (stereo partly specified)
inhibition (at 5.2 µM): 31.4%

CCOC(=O)N=Nc1c2ccccc2c2nc3no[nH]c3nc12
inhibition (at 7.75 µM): 24.5%

O=C1Cc2ccccc2C(=O)N1CCc1ccccc1
inhibition (at 3.02 µM): 11.1% (inactive)

COc1cc(Br)c(C(=O)c2nccc3cc(OC)c(OC)cc23)cc1OC
inhibition (at 1.13 µM): 21%

Cn1nc(-c2ccccn2)nc2c(=O)n(C)c(=O)nc1-2
inhibition (at 1.16 µM): 75.7%

O=C(COC(=O)c1ccc([N+](=O)[O-])s1)Nc1ccc(F)cc1
inhibition (at 26.34 µM): 99.5%

NS(=O)(=O)c1ccc(NC2=CC(=O)C(=O)c3ccccc32)cc1
inhibition (at 11.51 µM): 44.4%

COC(CNC(=O)c1ccc2c3c(onc13)-c1ccccc1C2=O)OC
inhibition (at 24.19 µM): 46%

Cc1c(Cl)cnc(NC(=O)COC(=O)c2ccc([N+](=O)[O-])s2)c1Cl
inhibition (at 20.44 µM): 76.2%

O=C(COC(=O)c1ccc([N+](=O)[O-])s1)NCc1ccc(F)cc1
inhibition (at 40.58 µM): 70%

O=C(c1ccco1)[C@@H]1[C@@H]2C(=O)N(c3ccc(Br)cc3)C(=O)[C@@H]2C2c3ccccc3C=CN21 (stereo partly specified)
inhibition (at 11.01 µM): 59.9%
